From patent US8551984B2, “Aminopyrimidines as SYK inhibitors” (Merck Sharp & Dohme Corp., priority 2009, dated 2013)
pIC50: −log10 of the molar value.

Biological target: recombinant human SYK (GST-hSYK fusion protein) (Homo sapiens, UniProt P43405)
Assay: biochemical
[1] = rhSYK Activity (IC50), recombinant human GST-SYK 5 pM, ATP 25 μM, biotinylated substrate peptide 250 nM, HTRF, 10-dose titration

From the text: Homogeneous Time-Resolved Fluorescence (HTRF) Assay for the Recombinant Human SYK Enzyme:

A pIC50 (Syk IC50, HTRF, recombinant human GST-SYK) of 9.00 was found for Cc1cc(Nc2nccc(C)n2)cc(-c2cnc([C@@]3(O)CC[C@H](C(=O)O)C(C)(C)C3)s2)c1 in this work.

A pIC50 [1] greater than 7.00 was found for Cc1cc(Nc2nccc(OC3CCC(O)CC3)n2)cc(-c2cnc(C(C)(O)C(F)(F)F)s2)c1 (mixture of isomers) [Example 96, 4-{[2-({3-methyl-5-[2-(1,1,1-trifluoro-2-hydroxypropan-2-yl)-1,3-thiazol-5-yl]phenyl}amino)-pyrimidin-4-yl]oxy}cyclohexanol] in this work.

A pIC50 (RHSYK Activity, Table 54A) greater than 7.00 was found for Cc1cc(Nc2nccc(C(F)(F)F)n2)cc(-c2cnc(C3(O)CCN(C(=O)C(O)C(F)(F)F)CC3)s2)c1 (racemic) [Example 54A-60] in this work.

A pIC50 [1] greater than 7.00 was found for Cc1cc(Nc2nccc(C(F)(F)F)n2)cc(-c2cnc([C@@H](O)[C@H](O)c3ccc(C(=O)O)cc3)s2)c1 (relative stereo) [Example 146, 4-{(Cis)-1,2-dihydroxy-2-[5-(3-methyl-5-{[4-(trifluoromethyl)pyrimidin-2-yl]amino}phenyl)-1,3-thiazol-2-yl]ethyl}benzoic acid] in this work.

A pIC50 (rhSYK Activity, Table 45) of 6.00 to 7.00 was found for Cc1cc(Nc2nccc(C(F)(F)F)n2)cc(-c2cnc(C3(O)CCCN(C(=O)OC(C)(C)C)CC3)s2)c1 (single isomer, unassigned) [45-1] in this work.

A pIC50 [1] greater than 7.00 was found for Cc1cc(Nc2nccc(C(F)(F)F)n2)cc(-c2cnc(C3CCC(C(N)=O)C(C)(C)C3)s2)c1 (single isomer, unassigned) [154(a), 2,2-Dim ethyl-4-[5-(3-methyl-5-{[4-(trifluoromethyl)pyrimidin-2-yl]amino}phenyl)-1,3-thiazol-2-yl]cyclohexanecarboxamide] in this work.

A pIC50 [1] greater than 7.00 was found for Cc1cc(Nc2nccc(C(F)(F)F)n2)cc(-c2cnc(C3(O)CCNC(=O)CC3O)s2)c1 (single isomer, unassigned) [161(B), [cis]-4,5-dihydroxy-5-[5-(3-methyl-5-{[4-(trifluoromethyl)pyrimidin-2-yl]amino}phenyl)-1,3-thiazol-2-yl]azepan-2-one] in this work.

A pIC50 [1] greater than 7.00 was found for Cc1cc(Nc2nccc(C(F)(F)F)n2)cc(-c2cnc(C3(O)CCC(=O)NCC3O)s2)c1 (single isomer, unassigned) [161(C), [cis]5,6-dihydroxy-5-[5-(3-methyl-5-{[4-(trifluoromethyl)pyrimidin-2-yl]amino}phenyl)-1,3-thiazol-2-yl]azepan-2-one] in this work.

A pIC50 (rhSYK Activity, Table 10, Formula A) greater than 7.00 was found for Cc1cc(Nc2nccc(C(C)C)n2)cc(-c2cnc(C3(O)CCNC(=O)CC3)s2)c1 (single isomer, unassigned) [Example 10A-2] in this work.

A pIC50 (rhSYK Activity, Table 33-A) greater than 7.00 was found for Cc1cc(Nc2ncc(Cl)cn2)cc(-c2cnc(C3(O)CCC(C(=O)O)C(C)(C)C3)s2)c1 (single isomer, unassigned) [Example 33A-43] in this work.

A pIC50 (rhSYK Activity, Table 33-A) of 6.00 to 7.00 was found for Cc1cc(Nc2ncc(F)cn2)cc(-c2cnc(C3(O)CCC(C(=O)O)C(C)(C)C3)s2)c1 (single isomer, unassigned) [Example 33A-46] in this work.

A pIC50 (rhSYK Activity, Table 33-A) greater than 7.00 was found for Cc1cc(Nc2ncc(F)cn2)cc(-c2cnc(C3(O)CCC(C(=O)O)C(C)(C)C3)s2)c1 (single isomer, unassigned) [Example 33A-47] in this work.

A pIC50 (rhSYK Activity, Table 33-A) greater than 7.00 was found for COC(=O)C1CCC(O)(c2ncc(-c3cc(CO)cc(Nc4nccc(C(F)(F)F)n4)c3)s2)CC1(C)C (single isomer, unassigned) [Example 33A-50] in this work.

A pIC50 (rhSYK Activity, Table 33-A) greater than 7.00 was found for CC1(C)CC(O)(c2ncc(-c3cc(CO)cc(Nc4nccc(C(F)(F)F)n4)c3)s2)CCC1C(=O)O (single isomer, unassigned) [Example 33A-51] in this work.

A pIC50 (rhSYK Activity, Table 33-A) greater than 7.00 was found for CC1(C)CC(O)(c2ncc(-c3cc(Nc4nccc(C(F)(F)F)n4)cc(C(F)F)c3)s2)CCC1C(=O)O (single isomer, unassigned) [Example 33A-57] in this work.

A pIC50 (rhSYK Activity, Table 33-A) greater than 7.00 was found for CC1(C)CC(O)(c2ncc(-c3cc(F)cc(Nc4nccc(C(F)(F)F)n4)c3)s2)CCC1C(=O)O (single isomer, unassigned) [Example 33A-63] in this work.

A pIC50 (rhSYK Activity, Table 33-A) greater than 7.00 was found for CC1(C)CC(O)(c2ncc(-c3cccc(Nc4nccc(C(F)(F)F)n4)c3)s2)CCC1C(=O)O (single isomer, unassigned) [Example 33A-66] in this work.

A pIC50 (rhSYK Activity, Table 33-A) greater than 7.00 was found for COc1ccnc(Nc2cc(C)cc(-c3cnc(C4(O)CCC(C(=O)O)C(C)(C)C4)s3)c2)n1 (single isomer, unassigned) [Example 33A-72] in this work.

A pIC50 (rhSYK Activity, Table 33-A) greater than 7.00 was found for Cc1cc(Nc2nccc(C(F)(F)F)n2)cc(-c2cnc(C3(O)CCC(C(=O)O)C(C)(C)C3C)s2)c1 (single isomer, unassigned) [Example 33A-77] in this work.

A pIC50 (rhSYK Activity, Table 33B) greater than 7.00 was found for Cc1cc(Nc2nccc(C(F)(F)F)n2)cc(-c2cnc(C3(O)CCC(CC(=O)O)C3)s2)c1 (single isomer, unassigned) [Example 33B-25] in this work.

A pIC50 (rhSYK Activity, Table 33D) greater than 7.00 was found for Cc1cc(Nc2nccc(C(F)(F)F)n2)cc(-c2cnc(C(C)(O)CCC(C)(C)C(=O)O)s2)c1 (single isomer, unassigned) [Example 33D-3] in this work.

A pIC50 (rhSYK Activity, Table 33D) greater than 7.00 was found for Cc1cc(Nc2nccc(C(F)(F)F)n2)cc(-c2cnc(C(C)(O)c3ccc(C(=O)O)s3)s2)c1 (single isomer, unassigned) [Example 33D-21] in this work.

A pIC50 (rhSYK Activity, Table 54D) greater than 7.00 was found for Cc1cc(Nc2nccc(C(F)(F)F)n2)cc(-c2cnc(C3(O)CCCN(C(=O)CC(N)=O)CC3)s2)c1 (single isomer, unassigned) [Example 54D-20] in this work.

A pIC50 (rhSYK Activity, Table 54D) greater than 7.00 was found for Cc1cc(Nc2nccc(C(F)(F)F)n2)cc(-c2cnc(C3(O)CCCN(C(=O)CC(=O)O)CC3)s2)c1 (single isomer, unassigned) [Example 54D-25] in this work.

A pIC50 (rhSYK Activity, Table 54D) greater than 7.00 was found for Cc1cc(Nc2nccc(C(F)(F)F)n2)cc(-c2cnc(C3(O)CCCN(C(=O)C(O)CO)CC3)s2)c1 (single isomer, unassigned) [Example 54D-28] in this work.

A pIC50 (rhSYK Activity, Table 54D) greater than 7.00 was found for Cc1cc(Nc2nccc(C(F)(F)F)n2)cc(-c2cnc(C3(O)CCCN(C(=O)c4cnn[nH]4)CC3)s2)c1 (single isomer, unassigned) [Example 54D-36] in this work.

A pIC50 (rhSYK Activity, Table 54D) greater than 7.00 was found for Cc1cc(Nc2nccc(C(F)(F)F)n2)cc(-c2cnc(C3(O)CCCN(C(=O)c4cnon4)CC3)s2)c1 (single isomer, unassigned) [Example 54D-38] in this work.

A pIC50 (rhSYK Activity, Table 54D) greater than 7.00 was found for Cc1cc(Nc2nccc(C(F)(F)F)n2)cc(-c2cnc(C3(O)CCCN(C(=O)CCC(N)=O)CC3)s2)c1 (single isomer, unassigned) [Example 54D-41] in this work.

A pIC50 (rhSYK Activity, Table 54D) greater than 7.00 was found for Cc1cc(Nc2nccc(C(F)(F)F)n2)cc(-c2cnc(C3(O)CCCN(C(=O)c4cnnn4C)CC3)s2)c1 (single isomer, unassigned) [Example 54D-50] in this work.

A pIC50 (rhSYK Activity, Table 54D) greater than 7.00 was found for Cc1cc(Nc2nccc(C(F)(F)F)n2)cc(-c2cnc(C3(O)CCCN(C(=O)Cn4ccnn4)CC3)s2)c1 (single isomer, unassigned) [Example 54D-52] in this work.

A pIC50 (rhSYK Activity, Table 54D) greater than 7.00 was found for Cc1cc(Nc2nccc(C(F)(F)F)n2)cc(-c2cnc(C3(O)CCCN(C(=O)c4nnnn4C)CC3)s2)c1 (single isomer, unassigned) [Example 54D-57] in this work.

A pIC50 (rhSYK Activity, Table 54D) greater than 7.00 was found for Cc1cc(Nc2nccc(C(F)(F)F)n2)cc(-c2cnc(C3(O)CCCN(C(=O)Cc4nnn[nH]4)CC3)s2)c1 (single isomer, unassigned) [Example 54D-59] in this work.

A pIC50 (rhSYK Activity, Table 54D) greater than 7.00 was found for CCOC(=O)CC(=O)N1CCCC(O)(c2ncc(-c3cc(C)cc(Nc4nccc(C(F)(F)F)n4)c3)s2)CC1 (single isomer, unassigned) [Example 54D-75] in this work.

A pIC50 (rhSYK Activity, Table 54D) greater than 7.00 was found for Cc1cc(Nc2nccc(C(F)(F)F)n2)cc(-c2cnc(C3(O)CCCN(C(=O)C(C)(CO)CO)CC3)s2)c1 (single isomer, unassigned) [Example 54D-79] in this work.

A pIC50 (rhSYK Activity, Table 54D) greater than 7.00 was found for Cc1cc(Nc2nccc(C(F)(F)F)n2)cc(-c2cnc(C3(O)CCCN(C(=O)c4[nH]nnc4Cl)CC3)s2)c1 (single isomer, unassigned) [Example 54D-100] in this work.

A pIC50 (rhSYK Activity, Table 54D) greater than 7.00 was found for Cc1cc(Nc2nccc(C(F)(F)F)n2)cc(-c2cnc(C3(O)CCCN(C(=O)c4nn[nH]c4C(F)(F)F)CC3)s2)c1 (single isomer, unassigned) [Example 54D-107] in this work.

A pIC50 (rhSYK Activity, Table 54D) greater than 7.00 was found for Cc1cc(Nc2nccc(C(F)(F)F)n2)cc(-c2cnc(C3(O)CCCN(C(=O)c4n[nH]c(C(F)(F)F)n4)CC3)s2)c1 (single isomer, unassigned) [Example 54D-109] in this work.

A pIC50 (rhSYK Activity, Table 54D) greater than 7.00 was found for Cc1cc(Nc2nccc(C(F)(F)F)n2)cc(-c2cnc(C3(O)CCCN(S(N)(=O)=O)CC3)s2)c1 (single isomer, unassigned) [Example 54D-116] in this work.

A pIC50 (rhSYK Activity, Table 54D) greater than 7.00 was found for Cc1cc(Nc2nccc(C(F)(F)F)n2)cc(-c2cnc(C3(O)CCCN(C(N)=O)CC3)s2)c1 (single isomer, unassigned) [Example 54D-119] in this work.

A pIC50 (rhSYK Activity, Table 54D) greater than 7.00 was found for Cc1cc(Nc2nccc(C(F)(F)F)n2)cc(-c2cnc(C3(O)CCCN(C(=O)CO)CC3)s2)c1 (single isomer, unassigned) [Example 54D-122] in this work.

A pIC50 (rhSYK Activity, Table 54D) greater than 7.00 was found for Cc1cc(Nc2nccc(C(F)(F)F)n2)cc(-c2cnc(C3(O)CCCN(C(=O)c4nc[nH]n4)CC3)s2)c1 (single isomer, unassigned) [Example 54D-124] in this work.

A pIC50 [1] greater than 7.00 was found for Cc1cc(Nc2nccc(C(F)(F)F)n2)cc(-c2cnc(CNC(CO)C(C)O)s2)c1 (single isomer, unassigned) [Example 88A-43] in this work.

A pIC50 [1] greater than 7.00 was found for Cc1cc(Nc2nccc(C(C)O)n2)cc(-c2cnc(C3(O)CCC(C(=O)O)C(C)(C)C3)s2)c1 (single isomer, unassigned) [Example 100A-14] in this work.

A pIC50 [1] greater than 7.00 was found for Cc1cc(Nc2nccc(C(O)C3CC3)n2)cc(-c2cnc(C3(O)CCC(C(=O)O)C(C)(C)C3)s2)c1 (single isomer, unassigned) [Example 100A-18] in this work.

A pIC50 [1] greater than 7.00 was found for Cc1cc(Nc2nccc(C(F)C3CC3)n2)cc(-c2cnc(C3(O)CCC(C(=O)O)C(C)(C)C3)s2)c1 (single isomer, unassigned) [Example 100A-21] in this work.

A pIC50 [1] greater than 7.00 was found for Cc1cc(Nc2nccc(C(C)(O)C3CC3)n2)cc(-c2cnc(C3(O)CCC(C(=O)O)C(C)(C)C3)s2)c1 (single isomer, unassigned) [Example 100A-25] in this work.

A pIC50 [1] of 6.00 to 7.00 was found for Cc1cc(Nc2nccc(C(F)(F)F)n2)cc(-c2cnc(C3(O)CCNC(=O)CC3)s2)c1Br (single isomer, unassigned) [Example 111-1] in this work.

A pIC50 [1] greater than 7.00 was found for Cc1cc(Nc2nccc(C(F)(F)F)n2)cc(-c2cnc(C3(O)CCNC(=O)CC3)s2)c1Br (single isomer, unassigned) [Example 111-2] in this work.
